Laboratory results: patent publication US11168079B2, “Alkene compounds as farnesoid x receptor modulators” (BRISTOL-MYERS SQUIBB COMPANY, priority 2017, dated 2021)
Where two headings read alike, the source gives them in different places.

Biological target: T1, human FXR (Homo sapiens, UniProt Q96RI1)
T1 sequence (Q96RI1 262-486 limits assumed): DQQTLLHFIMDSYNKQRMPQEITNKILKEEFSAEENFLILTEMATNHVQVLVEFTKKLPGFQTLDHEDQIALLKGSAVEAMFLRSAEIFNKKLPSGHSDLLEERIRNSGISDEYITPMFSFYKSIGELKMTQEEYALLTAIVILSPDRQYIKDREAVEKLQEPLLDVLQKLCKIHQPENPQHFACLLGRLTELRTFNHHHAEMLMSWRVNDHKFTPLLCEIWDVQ
Test: transient human FXR/Gal4-luciferase reporter assay (HLE GAL-FXR)
Conditions: HEK293 cells

[1] = FXR EC50 (nM), Gal4-hFXR fusion reporter, Table 1
[2] = HLE GAL-FXR EC50, Gal4-hFXR fusion reporter

EC50 [1] [nM]	SMILES	also measured
6	O=C(O)c1ccc2cc(N3CCC(/C=C/c4c(-c5c(Cl)cccc5Cl)noc4C4CC4)CC3)ccc2n1 [Example 26]	–
472	Cn1cc(C(=O)O)c2ncc(N3CC4C(/C=C/c5c(-c6c(Cl)cncc6Cl)noc5C5CC5)C4C3)cc21 (centres unmarked) [Example 209]	–
216	Clc1cccc(Cl)c1-c1noc(C2CC2)c1/C=C/C1CCN(c2cccc(-c3nn[nH]n3)c2)CC1 [Example 63]	–
63	O=C(O)c1cc(O[C@H]2C[C@H](F)C2)c2cc(N3CC4C(/C=C/c5c(-c6ccccc6C(F)(F)F)noc5C5CC5)C4C3)ccc2n1 (some centres unmarked) [Example 199]	–
276	O=C(O)c1cnn2cc(N3CCC(/C=C/c4c(-c5ccccc5OC(F)(F)F)noc4C4CC4)CC3)ccc12 [Example 118]	–
66	O=C(O)c1ccc(N2CC3C(/C=C/c4c(-c5c(Cl)cncc5Cl)noc4C4CC4)C3C2)cc1 (centres unmarked) [Example 96]	–
419	O=C(O)c1cc(C(F)(F)F)c2cc(N3CC[C@@H](/C=C/c4c(-c5ccccc5C(F)(F)F)noc4C4CC4)C3)ccc2n1 [Example 145]	–
132	CCn1cc(C(=O)O)c(=O)c2ccc(N3CC4C(/C=C/c5c(-c6ccccc6C(F)(F)F)noc5C5CC5)C4C3)cc21 (centres unmarked) [Example 192]	–
1160	O=C(O)c1ccc2nc(N3CC4C(/C=C/c5c(-c6c(Cl)cncc6Cl)noc5C5CC5)C4C3)ccc2c1 (centres unmarked) [Example 79]	–
206	O=C(O)c1cc(-c2nc(N3CC4C(/C=C/c5c(-c6c(Cl)cncc6Cl)noc5C5CC5)C4C3)no2)cc(C(F)(F)F)c1 (centres unmarked) [Example 123]	–
50	O=C(O)c1cc(OC2CCC2)c2cc(N3CC(/C=C/c4c(-c5cccnc5C(F)(F)F)noc4C4CC4)C3)ccc2n1 [Example 170]	–
15	O=C(O)c1cc(OC2COC2)c2cc(N3CC4C(/C=C/c5c(-c6ccccc6C(F)(F)F)noc5C5CC5)C4C3)ccc2n1 (centres unmarked) [Example 134]	–
–	CC1(/C=C/c2c(-c3c(Cl)cccc3Cl)noc2C2CC2)CCN(c2nc3c(F)cc(C(=O)O)cc3s2)CC1 [Example 6, (E)-2-(4-(2-(5-Cyclopropyl-3-(2,6-dichlorophenyl)isoxazol-4-yl)vinyl)-4-methylpiperidin-1-yl)-4-fluorobenzo[d]thiazole-6-carboxylic acid]	EC50 [2]: 536 nM
375	COc1cc(C(=O)O)nc2ccc(N3CC(/C=C/c4c(-c5ccccc5C(F)(F)F)noc4C4CC4)C3)nc12 [Example 173]	–
20	FC(F)(F)Oc1ccccc1-c1noc(C2CC2)c1/C=C/C1CCN(c2ccc(-c3nn[nH]n3)cc2)CC1 [Example 62]	–
–	COCc1cc(C(=O)O)nc2ccc(N3CC(/C=C/c4c(-c5cccnc5C(F)(F)F)noc4C4CC4)C3)cc12 [Example 171]	EC50 (read-out: FXR EC50, Gal4-hFXR fusion reporter, Table 1): 65 nM
310	O=C(O)c1nccc2cc(N3CC4C(/C=C/c5c(-c6c(Cl)cncc6Cl)noc5C5CC5)C4C3)ccc12 (centres unmarked) [Example 105]	–
236	Cn1nc(C(=O)O)c2ccc(N3CCC(/C=C/c4c(-c5c(Cl)cccc5Cl)noc4C4CC4)CC3)cc21 [Example 41]	–
400	Cn1cc(C(=O)O)c(=O)c2ccc(N3CC(/C=C/c4c(-c5ccccc5C(F)(F)F)noc4C4CC4)C3)cc21 [Example 181]	–
932	O=C(O)c1cc(OC2COC2)cc(-c2nc(N3CC4C(/C=C/c5c(-c6c(Cl)cncc6Cl)noc5C5CC5)C4C3)no2)c1 (centres unmarked) [Example 137]	–
555	CCOc1cc(N2CC3C(/C=C/c4c(-c5ccccc5C(F)(F)F)noc4C4CC4)C3C2)cnc1C(N)=O (centres unmarked) [Example 158]	–
–	COc1cc(C(=O)O)cc(-c2nc(N3CC4C(/C=C/c5c(-c6c(Cl)cncc6Cl)noc5C5CC5)C4C3)ns2)c1 (centres unmarked) [Example 210, (E)-3-(3-(6-(2-(5-Cyclopropyl-3-(3,5-dichloropyridin-4-yl)isoxazol-4-yl)vinyl)-3-azabicyclo[3.1.0]hexan-3-yl)-1,2,4-thiadiazol-5-yl)-5-methoxybenzoic acid]	EC50 [2]: 670 nM
71	COc1cc(C(=O)O)nc2c(F)cc(N3CC4C(/C=C/c5c(-c6c(Cl)cncc6Cl)noc5C5CC5)C4C3)cc12 (centres unmarked) [Example 198]	–
